Measured values reported in patent publication US20120083472A1, “PHARMACEUTICAL COMPOSITION FOR PROMOTING THE HEALING OF WOUNDS AND CONTAINING LYSOPHOSPHATIDIC ACID AND AN ADENYLYL CYCLASE INHIBITOR AS ACTIVE INGREDIENTS” (SNU R&DB FOUNDATION, priority 2009, published 2012).

Legend:
[1] = system: cAMP level in young and senescent fibroblasts; assay: Measurement of cyclic AMP (cAMP) by competitive binding assay; format: cell-based, human
Experimental: Sub-cultured young (PD 20) and senescent (PD 65) fibroblasts were treated with various concentrations of ACI for 1 hr. The level of cAMP in the acid extracts was measured by using a cAMP binding assay. The results shown represent the means±standard deviation of a representative experiment.
(§1) Human umbilical vein endothelial cells (HUVEC) were isolated from endothelial cells of umbilical cords as described by Whang et al (Whang et al., 2005). Foreskin human fibroblasts and keratinocytes were isolated from newborn foreskins as described by Boyce and Ham (Boyce and Ham, 1983). Patient consents were obtained from all donors and the use of tissue samples was approved by the ethics committee of the Seoul National University. The obtained and isolated fibroblasts and HUVEC were maintained in DMEM containing 10% fetal bovine serum (FBS) and antibiotics, and keratinotyes were in keratinocyte growth medium (KGM) containing antibiotics. Cells from the early stage of culture were cultured to obtain aged cells, which were used in experiments (population doubling -PD- of less than 25 vs PD 65-70 in fibroblasts, PD less than 5 vs PD 10-12 in case of HUVEC). Senescent cells were characterized by morphological changes, enhanced […]β-galactosidase activity and a reduced rate of proliferation (Yeo et al., 2000). Cells were grown for 2 days to 60-70% sub-confluency in the culture medium after treatment with LPA or ACI, and then serum-starved to quiescence by incubating them with either serum free DMEM containing 0.1% BSA (fibroblasts or HUVEC) or KBM (keratinocytes) for 2 days.
After removing the medium, 2.5 M of perchloric acid was added into the plate. The obtained acid extract was stored at […] until use, when the extract was neutralized with 4.2 M KOH and the cAMP content was determined by competitive binding with [^3H]-cAMP to the cAMP binding protein, RIα[…] of cAMP-dependent protein kinase (Jang and Juhnn, 2001). After the extraction, cells were lysed with 0.1 N NaOH and protein content was determined using Bradford protein assay reagent. The cAMP content was normalized versus the amount of acid-insoluble protein (expressed as the content of cAMP per protein concentration).

[2] = system: young and senescent fibroblasts, HUVEC, skin keratinocytes; assay: Cell growth / proliferation (cell number count); format: cell-based, human; details: for cell number in senescent cells of various cell types: senescent fibroblasts, old donor fibroblasts, HUVEC, keratinocytes, degree depends on cell type (FIG. 5)
Experimental: Sub-cultured young (PD 25, A) and senescent (PD 73, B) fibroblasts were serum-starved for 2 days and treated with LPA, 1 mM of dbcAMP (+dbcAMP), or 300 μM of ACI SQ22536 (+ACI) for 4 days. The number of cells was counted. The results shown represent the means±standard deviation of a representative experiment.
Sub-cultured young (PD 25) and senescent (PD 73) cells (A), fibroblasts from young and elderly donors (B), HUVEC (C) and skin keratinocytes (D) were serum-starved for 2 days and treated with LPA, and then treated with 1 mM of dibutyryl-cAMP, or 300 μM of ACI (SQ22536) for 4 days. The number of cells was counted. The results shown represent the means±standard deviation of a representative experiment.
as §1

[3] = system: young and senescent fibroblasts, HUVEC, skin keratinocytes; assay: DNA synthesis ([3H]-thymidine incorporation); format: cell-based, human; details: for basal and LPA-stimulated DNA synthesis in senescent cells: 1 mM dbcAMP or 300 μM ACI 2 hrs, then 30 μM LPA (FIG. 4A)
Experimental: as §1, with “Sub-cultured young (PD 25) and senescent (PD 73) cells (A), skin fibroblasts from young and elderly donors (B), HUVEC (C) and skin keratinocytes (D) were serum-starved for 2 days and treated with 1 mM of dibutyryl-cAMP (dbcAMP), or 300 […]μM of ACI (SQ22536) for 2 hrs. Cells were then treated with 30 μM of LPA in the presence of 0.5 μCi/ml of [^3H]-radioactive isotope. The radioactivity incorporated into the DNA was counted and fold increase of radioactive isotope incorporation was calculated and plotted. The results shown represent the means±standard deviation of a representative experiment. Human” for “Human”, “days. […] Radioactivity in the neutralized lysates was counted in a liquid scintillation cocktail. The measured radioactivity as such was compared to that of control to find the synthesis degree of […].” for “days.”

[4] = system: young and senescent fibroblasts (HDFs); assay: In vitro wound healing assay (cell migration into acellular area); format: cell-based, human; details: for migration of senescent cells / migration of young cells: serum-starved; for migration of senescent cells: LPA 30 μM, ACI 300 μM, 72 hrs (FIGS. 6B, 6D); for migration of young cells: LPA 30 μM or ACI 300 μM, up to 72 hrs (FIGS. 6A, 6C)
Experimental: Sub-cultured young (A, C) and senescent cells (B, D) were serum-starved for 2 days and treated with ACI or dbcAMP (1 mM) for 2 hr at 37° C. An area was denuded by a yellow tip and the cells were then treated with LPA (30 μM) and incubated at 37° C. Photographs were taken at 6 hrs, 12 hrs, 18 hrs, 24 hrs, 30 hrs, 36 hrs, 42 hrs, 60 hrs, and 72 hrs, and the number of cells migrated into the acellular area was counted and the average values were plotted in A and B. The data at 72 hrs were replotted in a bar graph to show the significant changes induced by treating cells with either LPA or ACI, or both (C and D). The results shown represent the means±standard deviation of a representative experiment. Cell migration from each group (p<0.001) was compared to the control value the migration was read as having a significance.
LPA-induced cell migration was assessed by the ability of the cells to move into an acellular area (Shiraha et al., 2000). Cells were plated on a 10-cm plastic dish and grown to 70-80% confluence in the culture media with 10% FBS. After a 2-day quiescence in serum free media with 0.1% BSA, cells were pretreated with vehicle, ACI (300 μM), or dbcAMP (1 mM) for 2 hrs at 37° C. An area was denuded by a tip and the cells were then incubated at 37° C. without or with LPA (30 μM). Photographs were taken at 6 hrs, 12 hrs, 18 hrs, 24 hrs, 30 hrs, 36 hrs, 42 hrs, 60 hrs, and 72 hrs, and the number of cells migrating to the acellular area was counted.

[5] = system: skin wounds of young and aged Fisher 344 rats; assay: Skin wound healing in young and aged rats (photographs, H & E, PCNA staining); format: in vivo, rat; details: for epithelialization (H & E) of aged wounded rats: day 4, compared to control untreated groups; for PCNA staining in aged rats: wound sections, versus very weak staining in control aged rats; for number of PCNA positive cells / wound healing rate (photographs of wounds): young and aged rats; for number of PCNA positive cells: wound sections (FIG. 9B, 9C); for wound healing rate (photographs of wounds): LPA 30 μM, ACI 300 μM, 200 μl topical once per two days, 4th day (FIG. 7)
Experimental: Rats were anesthetized with intraperitoneal injection of ketamine and xylazine. The back was shaved (A) and four full-thickness circular skin wounds of 1.0 cm diameter were cut (B). A teflon wound chamber was glued into the edge of the skin and then sewn using a […] (C).
Young and old rats were anesthetized and wounded as described in the legend of FIG. 1. 200 μl aliquots of the solutions containing LPA (30 μM), ACI (300 μM), and the mixture of LPA and ACI dissolved in physiological saline were applied onto wound sites using a sterile glass filter in each wound chamber once per two days. After 4 days, the wounds were photographed.
Young and old rats were anesthetized and wounded as described in the legend of FIG. 1. The wounds were treated with LPA (30 μM), ACI (300 μM), or the mixture of LPA and ACI as described in the legend of FIG. 1c. On postoperative days 4, animals were anesthetized and killed as described in “Materials and Methods”. Approximately 5-mm-thick section across the dorsoventral diameter of the wound was cut and fixed and embedded in paraffin. Serial sections were cut and processed for hematoxylin-eosin (H & E) staining. H & E stained epithelial layer was visualized on the top of each section.
Young and aged rats were anesthetized and wounded as described in the legend of FIG. 1. The wounds were treated with LPA (30 μM), ACI (300 μM), or the mixture of LPA and ACI as described in the legend of FIG. 1c. On postoperative days 2, 4, and 7, animals were anesthetized and killed as described in “Materials and Methods”. An about 5-mm-thick section across the dorsoventral diameter of the wound was cut and fixed and embedded in paraffin. Serial sections were cut and processed for immunohistochemistry using PCNA as described in “Materials and Methods”. The presence of PCNA was visualized by using avidin-biotin peroxidase complex method and the control was counterstained with hematoxylin. The photographs from postoperative days 4 are shown in A. The number of PCNA positive cell was counted from each photograph and plotted in B (young rats) and C (aged rats).
Rats aged 6 months and 24 months which were used in experiments were purchased from Samtaco BioKorea (Seoul, Korea) and housed two per cage in a room with controlled temperature and humidity with a 12:12-h light-dark cycle. They were maintained on a standard diet with food and water ad libitum in an animal facility accredited by the Korean Association for Accreditation of Laboratory Animal Care. Animals were divided into treatment groups, each consisting of nine, and used in experiments.
Rats were anesthetized with intraperitoneal injection of ketamine and xylazine (87/13 mg/kg). Skin wounding and its protection was performed as described by Balazs (Balazs et al., 2001). By the dermabrasion technique using diamond bar, four second-degreed partial thickness circular wounds of 1.0 cm. A teflon wound chamber with a 1.2 cm inner diameter centered around the wound was glued into the edge of the skin with Histoacryl and then sewn using a surgical nylon suture (Ethicon 4-0) (FIG. 1C). In order to protect wound site, upon treatment with LPA or ACI, they were sprayed using a sterile filter (GF-C Whatman), followed by treatment. This work was carried out by a single plastic surgeon for consistency and exactness of experiments. 30 μM of LPA, 300 μM of ACI, and the mixture of LPA (30 μM) and ACI (300 μM) are dissolved in physiological saline to be a 200-μl aliquot, respectively. The 200-μl aliquot, corresponding to 30 pmol/mm^2, was applied […] into the wound of the animals anesthetized with inhalation. The contralateral side received 200 μl of saline as a control. […]
Serial sections (4 […]μm thick) were cut and processed for hematoxylin-eosin (H & E) and immunohistological staining. Paraffin sections on the microslides were deparaffinized in xylene and rehydrated sequentially in alcohol. […]

Row | Compound | cAMP levels at 300 μM ([1]; 300 μM ACI, both young and senescent cells (FIG. 2)) | concentration of cAMP in aged cells upon treatment with ACI ([1]; aged fibroblasts, ACI) | cAMP levels ([1]; various concentrations of ACI, 1 hr, young (PD 20) and senescent (PD 65) fibroblasts (FIG. 2)) | proliferation of aged cells compared to treatment with LPA ([2]; aged fibroblasts) | cell number in senescent cells following ACI treatment ([2]; senescent fibroblasts (PD 73), 300 μM ACI, 4 days, unlike young cells (FIG. 3B)) | cell number in senescent cells of various cell types ([2]; 4 days) | basal and LPA-stimulated DNA synthesis in senescent cells [3] | thymidine incorporation, basal and LPA-stimulation conditions ([3]; young and aged fibroblasts, HUVEC and keratinocytes, 300 μM ACI (FIG. 4)) | migration of senescent cells [4] | migration of young cells [4] | epithelialization (H & E) of aged wounded rats [5] | PCNA staining in aged rats [5] | number of PCNA positive cells [5] | wound healing rate (photographs of wounds) [5] | LPA-induced proliferation ([2]; both young and senescent cells, 1 mM dbcAMP after LPA, 4 days (FIG. 3)) | LPA-induced cell migration ([4]; dbcAMP 1 mM with LPA 30 μM) | basal cell migration ([4]; young and senescent cells, 1 mM dbcAMP) | concentration of cAMP in aged cells ([1]; aged fibroblasts, treatment with LPA) | concentration of cAMP in young cells ([1]; young fibroblasts, treatment with LPA) | cell number (proliferation) ([2]; LPA 1-70 μM, 4 days, young and senescent fibroblasts (FIG. 3))
1 | Nc1ncnc2c1ncn2C1CCCO1 (stereo not shown) [ACI, 9-(tetrahydro-2′-furyl)adenine] | complete abrogation | again lowered | dose-dependently reduced cAMP levels | more increased | significant increase in the cell number | further enhanced | increased | enhanced the thymidine incorporation | increase in cell migration | unaltered | higher | increased significantly | increased significantly | faster than the untreated controls |  |  |  |  |  | 
2 | CCCC(=O)Nc1ncnc2c1ncn2[C@@H]1O[C@@H]2COP(=O)(O)O[C@H]2[C@H]1OC(=O)CCC [dbcAMP, dibutyryl cAMP] |  |  |  |  |  |  | decreased |  |  |  |  |  |  |  | decreased | reduced | did not significantly affect |  |  | 
3 | lysophosphatidic acid [LPA] |  |  |  |  |  | further enhanced |  |  | increased senescent cell migration at 72 hrs significantly | migration of cells is increased | higher | increased significantly | increased significantly | faster than the untreated controls |  |  |  | increased | lowered | induces proliferation of both young and senescent cells in a dose-dependent manner
